{
  "source": "patent US20220332799A1",
  "about": "“HERV INHIBITORS FOR USE IN TREATING TAUOPATHIES” (Deutsches Zentrum Für Neurodegenerative Erkrankungen E.V. …, priority 2019, published 2022)",
  "key": {"N2a NM-GFP^sol cells": {"tested_on": "N2a NM-GFP^sol cells", "type": "cell-based, mouse", "settings": "for percentage of recipient cells with NM-GFP aggregates: compounds added to cocultures 1 h after co-seeding, three concentrations, 12 h"}, "MuERV env and gag mRNA": {"tested_on": "MuERV env and gag mRNA", "test": "qRT-PCR of MuERV env and gag transcripts in donor clone s2E", "type": "cell-based, mouse", "settings": "for total env and gag mRNA: s2E P21 donors, L-methionine 80 mM, Betaine 80 mM, Choline chloride 20 mM, 6 days, vs medium control; for expression of total env and gag mRNA: s2E P1 donors, Aza 200 nM or Dec 100 nM, then 5 days without drug, vs DMSO", "protocol": "To inhibit methyltransferases, s2E P1 donor cells were treated for three days with methyltransferase inhibitors 5-Azacytidine (Aza) 200 nM, Decitabine (Dec) 100 nM or DMSO as solvent control. Subsequently, the cells were cultured in the absence of the drugs for 5 days. Pre-treated donor cells were subsequently cocultured with recipient cells as described above to monitor aggregate induction efficiency in recipient N2a NM-GFP^sol cells. Cell lysates of donor cells were also analyzed for MuERV Env and Gag expression levels by western blot. To increase DNA methylation, the s2E donor clone (P21) was treated with methyl group donors L-methionine (L-M) 80 mM, Betaine (B) 80 mM, Choline chloride (CC) 20 mM or medium control for 6 days. MuERV Env and Gag protein levels were analyzed by western blot. Subsequently, cells were cocultured with recipient cells for 16 h. The percentage of aggregate containing recipient cells was compared to the percentage of aggregate bearing recipients cocultured with solvent-treated donors. […]\nTotal RNA from cell pellets or brain samples was isolated using the RNeasy Mini Kit or RNeasy Lipid Tissue Mini Kit (Qiagen). RNA concentration and quality were determined using the Agilent 2100 Bioanalyzer System. For a 20 μl reaction, 1 μg RNAs were reversely transcribed to cDNA using the iScript™ cDNA Synthesis Kit (Bio-Rad). For a 20 μl qRT-PCR reaction, 2 μl of synthesized cDNA was used as template. For qRT-PCR of murine env AA037244.2 and gag AID54952, custom designed TaqMan probes were used (Thermo Fisher Scientific). Pre-designed TaqMan probes by the company for murine pan-env, xpr1, mcat-1 and gapdh as housekeeping control and TaqMan™ Gene Expression Master Mix (Thermo Fisher Scientific) were used. qRT-PCR using TaqMan probes was performed as described in the manufacturer's instruction. For qRT-PCR analyses of HERV family members, primers were designed using the corresponding cDNA sequences (cf. SEQ ID NOs. 73-92). PowerUP SYBR™ Green Master Mix (Thermo Fisher Scientific) was mixed with different cDNAs and corresponding primers as indicated in the instruction. The fast cycling mode was used for all primers."}, "MuERV Env and Gag": {"tested_on": "MuERV Env and Gag", "type": "cell-based, mouse", "protocol": "To inhibit methyltransferases, s2E P1 donor cells were treated for three days with methyltransferase inhibitors 5-Azacytidine (Aza) 200 nM, Decitabine (Dec) 100 nM or DMSO as solvent control. Subsequently, the cells were cultured in the absence of the drugs for 5 days. Pre-treated donor cells were subsequently cocultured with recipient cells as described above to monitor aggregate induction efficiency in recipient N2a NM-GFP^sol cells. Cell lysates of donor cells were also analyzed for MuERV Env and Gag expression levels by western blot. To increase DNA methylation, the s2E donor clone (P21) was treated with methyl group donors L-methionine (L-M) 80 mM, Betaine (B) 80 mM, Choline chloride (CC) 20 mM or medium control for 6 days. MuERV Env and Gag protein levels were analyzed by western blot. Subsequently, cells were cocultured with recipient cells for 16 h. The percentage of aggregate containing recipient cells was compared to the percentage of aggregate bearing recipients cocultured with solvent-treated donors.\nPre-designed siRNAs against murine XPR1 and mCat-1 genes were used to knock-down genes coding for putative receptors. For transfection, 2-4×10^5 cells/well were seeded on 6 well plates. The next day, 30 nM siRNA or plasmid DNA was transfected using Lipofectamine RNAiMAX or Lipofectamine2000 transfection reagent, respectively, according to the manufacturer's instructions (Thermo Fisher Scientific). After 2 days, transfected cells were harvested for aggregate induction assays and qRT-PCR, western blot analysis.\nFor Western blot analysis, protein concentrations were measured using the Quick Start™ Bradford Protein assay (Bio-Rad). Proteins were separated on NuPAGE®Novex® 4-12 Bis-Tris Protein Gels (Life Technologies) followed by transfer onto a PVDF membrane (GE Healthcare). Western blot analysis was performed using rat hybridoma anti-MuERV Env mAb83A25; anti-xenotropic MuLV virus antibody ABIN457298 for detecting both Env and Gag (antibodies-online); mouse anti-MuERV Gag ab100970 (Abcam); mouse anti-Alix (1:1000; BD Bioscience); rat anti-HA 3F10 (1:1000; Roche); mouse anti-GAPDH 6C5 (1:5000; Abcam); mouse anti-Hsc/Hsp70 N27F3-4 (1:1000; ENZO); mouse anti-VSV-G A5977 (Sigma); rabbit anti-Tau ab64193 (Abcam); mouse anti-HERV K Env HERM-1811-5 (Amsbio); mouse anti-HERV K Gag HERM-1841-5 (Amsbio). The membrane was incubated with Pierce™ ECL Western Blotting Substrate (Thermo Fisher Scientific) according to the manufacturer's recommendations."}, "HEK Tau-FRsol cells [1]": {"tested_on": "HEK Tau-FRsol cells", "test": "Tau-FR aggregate induction by coculture with A375 Tau-GFPAD donor cells", "type": "cell-based, human", "settings": "donors 10 μM for 3 d; coculture 3 d in presence of 10 μM; vs DMSO", "protocol": "(§1) Melanoma cell line A375 (Oricchio E, Sciamanna I, Beraldi R, Tolstonog G V, Schumann G G, Spadafora C. 2007. Distinct roles for LINE-1 and HERV-K retroelements in cell proliferation, differentiation and tumor progression. Oncogene 26:4226-4233) was engineered to stably express Tau-GFP and subsequently exposed to AD brain homogenate to induce Tau aggregation. A clone stably propagating Tau-GFPagg was isolated and used for experiments. Donor A375 Tau-GFPAD cells were treated with 10 μM inhibitor Lopinavir to repress HERV-K protease for 3 d before EV were harvested. Donors or donor EV were then cultured with recipient HEK Tau-FRsol cells in the presence of 10 μM Lopinavir or DMSO for 3 d. • b. Quantitative analysis of recipient cells with Tau-FRagg upon coculture with donors. Statistical analysis was performed with unpaired Student's t-test (n=6). • c. Quantitative analysis of recipient cells with induced Tau-FRagg following exposure to donor-derived EV. Statistical analysis was performed with unpaired Student's t-test (n=3). […]\n(§2) To inhibit methyltransferase, MCF-7 Tau-GFPAD cells were treated with 2 μM Aza or DMSO for 4 d. […] Afterwards, the total numbers of viable cells and the viability upon drug treatments were determined using the Vi-VELLTMXR Cell Viability Analyzer (Beckman Coulter). […]"}, "HEK Tau-FRsol cells [2]": {"tested_on": "HEK Tau-FRsol cells", "test": "Tau-FR aggregate induction by EV from A375 Tau-GFPAD donor cells", "type": "cell-based, human", "settings": "EV from donors treated with 10 μM for 3 d; 3 d on recipients in presence of 10 μM; vs DMSO", "protocol": "as §1, §2"}, "HERV-K protease": {"target": "T1, HERV-K protease (Homo sapiens, UniProt P10265)", "T1 sequence (P10265 1-156)": "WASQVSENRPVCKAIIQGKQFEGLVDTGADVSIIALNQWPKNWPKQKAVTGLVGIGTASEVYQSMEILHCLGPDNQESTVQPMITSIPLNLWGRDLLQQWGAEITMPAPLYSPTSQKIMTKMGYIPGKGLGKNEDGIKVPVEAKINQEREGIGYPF", "settings": "stated as shown previously; cited from earlier work"}},
  "note": "Entries after “also recorded” stand apart in the source; their conditions may differ. Where two headings read alike, the source gives them in different places.",
  "data": [
    {"smiles": "COC(=O)N[C@H](C(=O)N[C@@H](Cc1ccccc1)[C@@H](O)CN(Cc1ccc(-c2ccccn2)cc1)NC(=O)[C@@H](NC(=O)OC)C(C)(C)C)C(C)(C)C", "note": "[atazanavir]", "values": [
      {"measurement": "percentage of recipient cells with NM-GFP aggregates", "setting": "N2a NM-GFP^sol cells; vs DMSO", "value": "reduced the percentage of recipient cells with NM-GFP aggregates"},
      {"measurement": "percentage of recipient cells with NM-GFP aggregates", "setting": "N2a NM-GFP^sol cells; vs DMSO, listed as Atazenavir", "value": "reduce aggregate induction"}
    ]},
    {"smiles": "C[N+](C)(C)CC(=O)O", "note": "[Betaine]", "values": [
      {"measurement": "total env and gag mRNA", "setting": "MuERV env and gag mRNA", "value": "transcripts decreased"},
      {"measurement": "total env and gag mRNA", "setting": "MuERV env and gag mRNA; listed as betaine", "value": "decreased total env and gag mRNA"},
      {"measurement": "NM-GFP aggregate induction when pretreated donors were cocultured with recipient cells", "setting": "N2a NM-GFP^sol cells; s2E P21 donors pretreated 6 days, coculture 16 h", "value": "decreased NM-GFP aggregate induction"},
      {"measurement": "MuERV proteins", "setting": "MuERV Env and Gag; s2E P21 donors, L-methionine 80 mM, Betaine 80 mM, Choline chloride 20 mM, 6 days, vs medium control", "value": "decreased"}
    ]},
    {"smiles": "CSCC[C@H](N)C(=O)O", "note": "[L-methionine]", "values": [
      {"measurement": "total env and gag mRNA", "setting": "MuERV env and gag mRNA", "value": "transcripts decreased"},
      {"measurement": "total env and gag mRNA", "setting": "MuERV env and gag mRNA; listed as 1-methionine", "value": "decreased total env and gag mRNA"},
      {"measurement": "NM-GFP aggregate induction when pretreated donors were cocultured with recipient cells", "setting": "N2a NM-GFP^sol cells", "value": "decreased NM-GFP aggregate induction"},
      {"measurement": "MuERV proteins", "setting": "MuERV Env and Gag", "value": "decreased"}
    ]},
    {"smiles": "C[N+](C)(C)CCO.[Cl-]", "note": "[Choline chloride]", "values": [
      {"measurement": "total env and gag mRNA", "setting": "MuERV env and gag mRNA", "value": "transcripts decreased"},
      {"measurement": "total env and gag mRNA", "setting": "MuERV env and gag mRNA; listed as choline chloride", "value": "decreased total env and gag mRNA"},
      {"measurement": "NM-GFP aggregate induction when pretreated donors were cocultured with recipient cells", "setting": "N2a NM-GFP^sol cells", "value": "decreased NM-GFP aggregate induction"},
      {"measurement": "MuERV proteins", "setting": "MuERV Env and Gag", "value": "decreased"}
    ]},
    {"smiles": "Cc1cccc(C)c1OCC(=O)N[C@@H](Cc1ccccc1)[C@@H](O)C[C@H](Cc1ccccc1)NC(=O)[C@H](C(C)C)N1CCCNC1=O", "note": "[Lopinavir]", "values": [
      {"measurement": "recipient cells with Tau-FRagg upon coculture with donors", "setting": "HEK Tau-FRsol cells [1]", "value": "significant reduction of recipient cells with aggregates; also recorded: reduces intercellular Tau aggregate spreading; also recorded: reduces intercellular protein aggregate spreading"},
      {"measurement": "Tau aggregate inducing activity of donor-derived EV in recipients", "setting": "HEK Tau-FRsol cells [2]", "value": "reduced Tau aggregate inducing activity in recipients"},
      {"measurement": "inhibition of HERV-K protease required for HERV protein maturation", "setting": "HERV-K protease", "value": "inhibit HERV-K protease"}
    ]},
    {"smiles": "Nc1ncn([C@@H]2O[C@H](CO)[C@@H](O)[C@H]2O)c(=O)n1", "note": "[5-Azacytidine]", "values": [
      {"measurement": "expression of total env and gag mRNA", "setting": "MuERV env and gag mRNA", "value": "increased expression of total env and gag mRNA"},
      {"measurement": "expression of total env and gag mRNA", "setting": "MuERV env and gag mRNA; listed as 5-azacytidine", "value": "Increased expression of MuERV env (f), gag (h) and pan-env (g) transcripts"},
      {"measurement": "NM aggregate induction in recipient cells cocultured with pretreated donors", "setting": "N2a NM-GFP^sol cells; s2E P1 donors pretreated, Aza 200 nM or Dec 100 nM, vs DMSO", "value": "significantly increased NM aggregate induction in recipient cells"},
      {"measurement": "expression of MuERV proteins", "setting": "MuERV Env and Gag; s2E P1 donors, Aza 200 nM or Dec 100 nM, then 5 days without drug, vs DMSO", "value": "increased expression"}
    ]}
  ]
}
